From PubChem BioAssay (NCI)
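Values below derive from 48-hour exposures of cells grown in 96-well plates, with endpoints linearly interpolated between the two concentrations bracketing the appropriate inhibition level. GI50: concentration for 50% inhibition of growth. Definition used: TGI = concentration required for complete inhibition of growth.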

How the values were obtained:
Experiment in all cases: NCI-60 cell line screen, 48 h
NCI-H23 lung = tested on: NCI-H23 lung
HCC-2998 colon = tested on: HCC-2998 colon
OVCAR-5 ovarian = tested on: OVCAR-5 ovarian
LOX IMVI melanoma = tested on: LOX IMVI melanoma
SW-620 colon = tested on: SW-620 colon
HS 578T breast = tested on: HS 578T breast
A549 NSCLC = tested on: A549 NSCLC
M14 melanoma = tested on: M14 melanoma
ACHN renal = tested on: ACHN renal
SK-OV-3 ovarian = tested on: SK-OV-3 ovarian

Row | SMILES | GI50 (NCI-H23 lung) | TGI (NCI-H23 lung) | GI50 (HCC-2998 colon) | TGI (HCC-2998 colon) | GI50 (OVCAR-5 ovarian) | TGI (OVCAR-5 ovarian) | GI50 (LOX IMVI melanoma) | TGI (LOX IMVI melanoma) | GI50 (SW-620 colon) | TGI (SW-620 colon) | GI50 (HS 578T breast) | TGI (HS 578T breast) | GI50 (A549 NSCLC) | TGI (A549 NSCLC) | GI50 (M14 melanoma) | TGI (M14 melanoma) | GI50 (ACHN renal) | TGI (ACHN renal) | GI50 (SK-OV-3 ovarian) | TGI (SK-OV-3 ovarian)
1 | NC1=NC(c2ccc(Cl)cc2)C2=C(N1)/C(=C/c1ccc(Cl)cc1)CCC2 (stereo not given) | 5.98 µM | 26.7 µM | 2.11 µM | 4.27 µM | 25.2 µM | 63.3 µM | 1.85 µM | 3.64 µM | 3.24 µM | 12.4 µM | 7.97 µM | > 29.9 µM | 7.79 µM | 35 µM | 2.77 µM | 11.6 µM | 18 µM | > 66.2 µM | 23.5 µM | > 100 µM
2 | CCN1c2ccccc2C(Cl)(c2ccc(N(C)C)cc2)c2ccccc21 | 3.04 µM | 14.4 µM | 10.9 µM | 23.4 µM | 17.7 µM | 34.9 µM | 3.67 µM | 13.6 µM | 2.9 µM | 12.1 µM | 4.89 µM | 27.3 µM | 4.34 µM | 24.5 µM | 5.97 µM | 20.2 µM | 12.4 µM | 28.4 µM | 4.97 µM | 18.2 µM
3 | O=C(Nc1ccc(Cl)cc1)c1cc(-c2ccc(Cl)cc2)c2sc(=O)[nH]c2n1 | 1.24 µM | 6.85 µM | 2.17 µM | 14.5 µM | 3.41 µM | 29.3 µM | 2.88 µM | 10.6 µM | 2.9 µM | 15.2 µM | 3.04 µM | 21.5 µM | 2.49 µM | 12.7 µM | 2.75 µM | 10.3 µM | 2.27 µM | 8.89 µM | 2.08 µM | 7.47 µM
4 | C=CCC(N[C@H](CO)c1ccccc1)c1cn(C(=O)OCC)c2ccccc12 (stereo not given in full) | 15.8 µM | 32 µM | 15.8 µM | 29.6 µM | 16.3 µM | 33.8 µM | 15.9 µM | 30.1 µM | 25.6 µM | 52.2 µM | 19.4 µM | 46 µM | 13.1 µM | 27.6 µM | 14.3 µM | 28.2 µM | 16.1 µM | 30.2 µM | 31.3 µM | > 100 µM
5 | COc1ccc(-n2c3c(c4c(CN5CCOCC5)c(O)ccc42)CCc2ccccc2C3=O)cc1 | 24.9 µM | > 100 µM | > 100 µM | > 100 µM | 34.8 µM | > 100 µM | 67.3 µM | > 100 µM | 82.2 µM | > 100 µM | > 100 µM | > 100 µM | > 100 µM | > 100 µM | > 100 µM | > 100 µM | > 100 µM | > 100 µM | > 100 µM | > 100 µM
6 | N#CCc1ncc(-c2ccc(C(F)(F)F)cc2)c(NC2CCCCCC2)n1 | > 10 µM | > 10 µM | > 10 µM | > 10 µM | > 10 µM | > 10 µM | > 10 µM | > 10 µM | > 10 µM | > 10 µM | > 10 µM | > 10 µM | > 10 µM | > 10 µM | > 10 µM | > 10 µM | > 10 µM | > 10 µM | > 10 µM | > 10 µM
7 | O=C(CCl)N1c2ccccc2Sc2ccc3ccccc3c21 | 1.18 µM | 2.54 µM | 1.8 µM | 3.25 µM | 1.48 µM | 3.03 µM | 0.143 µM | 0.299 µM | 1.27 µM | 2.89 µM | 2.04 µM | 6.56 µM | 1.98 µM | 4.75 µM | 1.66 µM | 3.43 µM | 0.801 µM | 2.01 µM | 1.79 µM | 3.18 µM
8 | CCOC(=O)/C=C/C(C(=O)/C=C/c1ccc(O)c(OC)c1)=C(O)\C=C\c1ccc(O)c(OC)c1 | 1.73 µM | 4.42 µM | 1.77 µM | 3.74 µM | 3.17 µM | 7.56 µM | 0.903 µM | 3.12 µM | 3.6 µM | 24.7 µM | 4.25 µM | 41.7 µM | 4.84 µM | 24.5 µM | 2.2 µM | 5.15 µM | 2.36 µM | 6.25 µM | 8.07 µM | 25.4 µM
9 | Cc1cc(Cc2cc(C)cc(C(C)(C)C)c2O)c(O)c(C(C)(C)C)c1 | 4.23 µM | 16.3 µM | 4.3 µM | 15.9 µM | 14.4 µM | 27.5 µM | 7.55 µM | 20.2 µM | 4.47 µM | 16 µM | 11.2 µM | 29.2 µM | 3.86 µM | 13.2 µM | 11.1 µM | 23 µM | 4.59 µM | 15.4 µM | 11.9 µM | 24.2 µM
10 | Cc1cc(C)c(O)c(CN(C)Cc2cc(Cl)cc(Cl)c2O)c1 | 3.91 µM | 17.3 µM | 4.8 µM | 17.4 µM | 6.12 µM | 20.5 µM | 4.06 µM | 17.1 µM | 3.71 µM | 14.3 µM | 5.41 µM | 32.8 µM | 5.41 µM | 28.5 µM | 9.17 µM | 22.8 µM | 4.73 µM | 24 µM | 6.48 µM | 33 µM
11 | Cc1ccc2c(O)c(O)cc(NC(C)CCCN)c2n1 (stereo not given) | 3.3 µM | 19.3 µM | 9.11 µM | > 51.5 µM | 7.36 µM | 25.2 µM | 4.55 µM | 25.4 µM | 10.2 µM | 51.3 µM | 13.9 µM | 49.4 µM | 24.3 µM | > 100 µM | 33.6 µM | > 88.1 µM | > 100 µM | > 100 µM | > 78.6 µM | > 100 µM
12 | O=C(N/N=C/c1ccccc1O)C(=O)Nc1ccc(F)cc1 | 7.31 µM | > 100 µM | 4.61 µM | > 100 µM | 6.69 µM | > 100 µM | 4.28 µM | > 100 µM | 6.26 µM | > 100 µM | 33.8 µM | > 100 µM | 3.67 µM | > 100 µM | 4.87 µM | 40.4 µM | 3.02 µM | > 100 µM | 10.3 µM | > 100 µM
